Experimental data taken from the supplement of paper PMC10011410.
± gives the standard deviation of the averaged measurements.

What was measured:
U-2 OS [1] = assay: cell painting activity score (Mahalanobis distance from DMSO wells); higher = stronger morphological phenotype; conditions: 24 h
Method: (§1)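 Cell painting in U-2 OS cells (384-well, about 1,500 cells per well), compound exposure 24 h, usually six 2-fold concentrations from 20 to 0.625 uM (some compounds higher or lower). Relative cell count is the cell number per well relative to DMSO wells. Activity score is the Mahalanobis distance of the morphological profile from DMSO control wells. Mean of four technical replicate plates.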

U-2 OS [2] = assay: relative cell count vs DMSO (cell painting) (fraction of DMSO control); higher = more cells remaining (less cytotoxic); conditions: 24 h
Method: as §1

U-2 OS [3] = assay: AUC of culture confluence over time (live-cell imaging) (AUC (confluence % x time)); higher = more confluent culture (less growth inhibition)
Method: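 Live-cell Incucyte imaging of U-2 OS cells in F-12K medium. Compounds were tested mostly at 5, 10 and 20 uM, and cells were imaged every 4 h for up to 60 h. Value is the area under the curve of phase-contrast confluence over time.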

Compound | cell painting activity score (U-2 OS [1]; 0.625 µM) | cell painting activity score (U-2 OS [1]; 1.25 µM) | cell painting activity score (U-2 OS [1]; 2.5 µM) | cell painting activity score (U-2 OS [1]; 5 µM) | cell painting activity score (U-2 OS [1]; 10 µM) | cell painting activity score (U-2 OS [1]; 20 µM) | relative cell count (U-2 OS [2]; 0.625 µM) | relative cell count (U-2 OS [2]; 1.25 µM) | relative cell count (U-2 OS [2]; 2.5 µM) | relative cell count (U-2 OS [2]; 5 µM) | relative cell count (U-2 OS [2]; 10 µM) | relative cell count (U-2 OS [2]; 20 µM) | AUC of culture confluence over time (U-2 OS [3]; 5 µM) | AUC of culture confluence over time (U-2 OS [3]; 10 µM) | AUC of culture confluence over time (U-2 OS [3]; 20 µM) | cell painting activity score (U-2 OS [1]; 0.019532 µM) | cell painting activity score (U-2 OS [1]; 0.07812 µM) | cell painting activity score (U-2 OS [1]; 0.3124 µM) | relative cell count (U-2 OS [2]; 0.019532 µM) | relative cell count (U-2 OS [2]; 0.07812 µM) | relative cell count (U-2 OS [2]; 0.3124 µM) | AUC of culture confluence over time (U-2 OS [3]; 1.25 µM)
C[C@@]1(CO)[C@H](O)CC[C@@]2(C)[C@H]1CC[C@H]1C[C@@H]3C[C@@]12CC[C@]3(O)CO | 13.5 | 12.7 | 14.8 | 14.8 | 16.2 | 15.8 | 0.886 | 0.788 | 0.683 | 0.659 | 0.621 | 0.622 | 30.1 | 29 | 28.6 |  |  |  |  |  |  | 
C[C@@H]1O[C@@H](O[C@H]2[C@H](O[C@H]3CC[C@@]4(C)[C@@H](CC[C@]5(C)[C@@H]4CC=C4[C@@H]6CC(C)(C)CC[C@]6(C(=O)O[C@@H]6O[C@H](CO[C@@H]7O[C@H](CO)[C@@H](O[C@@H]8O[C@@H](C)[C@H](O)[C@@H](O)[C@H]8O)[C@H](O)[C@H]7O)[C@@H](O)[C@H](O)[C@H]6O)CC[C@]45C)[C@]3(C)CO)OC[C@H](O)[C@@H]2O)[C@H](O)[C@H](O)[C@H]1O | 3.46 | 5.62 | 3.28 | 3.16 | 3.23 | 2.9 | 0.985 | 0.966 | 0.955 | 1 | 1.01 | 1.04 | 45.1 | 48.4 | 45.2 |  |  |  |  |  |  | 
CC(C)C[C@H](NC(=O)[C@H](CCc1ccccc1)NC(=O)CN1CCOCC1)C(=O)N[C@@H](Cc1ccccc1)C(=O)N[C@@H](CC(C)C)C(=O)[C@@]1(C)CO1 | 30.8 | 31.9 | 32.5 | 31.5 | 28.8 | 29.7 | 0.149 | 0.136 | 0.125 | 0.141 | 0.143 | 0.149 | 18.4 | 17.5 | 16.1 |  |  |  |  |  |  | 
Cc1[nH]c2ccccc2c1CCNCc1ccc(/C=C/C(=O)NO)cc1 | 16.3 | 16 | 15.9 | 15.3 | 13.8 | 16.2 | 0.494 | 0.472 | 0.445 | 0.466 | 0.474 | 0.419 | 16.7 | 19.5 | 21 |  |  |  |  |  |  | 
Cc1nc(Nc2ncc(C(=O)Nc3c(C)cccc3Cl)s2)cc(N2CCN(CCO)CC2)n1 | 11.4 | 12.6 | 12.3 | 12.2 | 13.1 | 12.8 | 0.973 | 0.883 | 0.89 | 0.894 | 0.806 | 0.839 | 32.5 | 29 | 22.6 |  |  |  |  |  |  | 
CC(=O)N[C@@H](CCCCNC(=O)CSCCNC(=O)CCNC(=O)[C@H](O)C(C)(C)COP(=O)(O)OP(=O)(O)OC[C@H]1O[C@@H](n2cnc3c(N)ncnc32)[C@H](O)[C@@H]1OP(=O)(O)O)C(N)=O.O=C(O)C(F)(F)F | 3.32 | 5.02 | 3.77 | 3.73 | 4.57 | 4.45 | 0.896 | 0.879 | 0.923 | 0.883 | 0.875 | 0.903 | 44.2 | 44.8 | 42.4 |  |  |  |  |  |  | 
Nc1c[n+](N2CCOCC2)no1.[Cl-] | 6.05 | 6.1 | 9.31 | 10.9 | 12.9 | 15.2 | 0.896 | 0.814 | 0.739 | 0.578 | 0.503 | 0.489 | 49.4 | 49.9 | 48.7 |  |  |  |  |  |  | 
CCOC(=O)C1=C(C)NC(=S)N[C@@H]1c1cccc(O)c1 | 4.88 | 4.81 | 5.49 | 5.58 | 4.56 | 4.64 | 0.936 | 0.94 | 1.01 | 0.941 | 0.954 | 0.999 | 48.6 | 50.3 | 44.1 |  |  |  |  |  |  | 
CC(=O)O[C@H]1C(=O)[C@@]2(C)[C@H]([C@H](OC(=O)c3ccccc3)[C@]3(O)C[C@H](OC(=O)[C@H](O)[C@@H](NC(=O)c4ccccc4)c4ccccc4)C(C)=C1C3(C)C)[C@]1(OC(C)=O)CO[C@@H]1C[C@@H]2O |  | 24.9 ± 1.2 |  | 23.3 ± 0.75 |  | 24.1 ± 0.87 |  | 0.253 ± 0.051 |  | 0.222 ± 0.03 |  | 0.351 ± 0.024 | 17.4 |  | 20 | 16.9 ± 1.5 | 19 ± 0.57 | 22.1 ± 1.1 | 0.939 ± 0.12 | 0.744 ± 0.19 | 0.413 ± 0.16 | 17
